# According to PubChem BioAssay (NCI):
#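 Test compounds were applied to cells in 96-well plates for 48 hours at 5 doses. GI50: concentration for 50% inhibition of growth. TGI denotes the concentration required for complete inhibition of growth.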
# Assays:
# Assay in all cases: NCI-60 cell line screen, 48 h
# SF-539 CNS = tested on: SF-539 CNS
# MALME-3M melanoma = tested on: MALME-3M melanoma
# RPMI-8226 leukemia = tested on: RPMI-8226 leukemia
# OVCAR-4 ovarian = tested on: OVCAR-4 ovarian
# 786-0 renal = tested on: 786-0 renal
# SNB-75 CNS = tested on: SNB-75 CNS
# SNB-19 CNS = tested on: SNB-19 CNS
# SN12C renal = tested on: SN12C renal
# HOP-92 NSCLC = tested on: HOP-92 NSCLC
# SK-MEL-2 melanoma = tested on: SK-MEL-2 melanoma
# SK-OV-3 ovarian = tested on: SK-OV-3 ovarian
# SK-MEL-28 melanoma = tested on: SK-MEL-28 melanoma
# K-562 leukemia = tested on: K-562 leukemia
# BT-549 breast = tested on: BT-549 breast
# UACC-62 melanoma = tested on: UACC-62 melanoma
# HCT-15 colon = tested on: HCT-15 colon
# RXF 393 renal = tested on: RXF 393 renal
# NCI-H460 lung = tested on: NCI-H460 lung
# OVCAR-3 ovarian = tested on: OVCAR-3 ovarian
# MCF7 breast = tested on: MCF7 breast
# MOLT-4 leukemia = tested on: MOLT-4 leukemia
# U251 CNS = tested on: U251 CNS
# CCRF-CEM leukemia = tested on: CCRF-CEM leukemia
# A498 renal = tested on: A498 renal
# SK-MEL-5 melanoma = tested on: SK-MEL-5 melanoma
# COLO 205 colon = tested on: COLO 205 colon
# T-47D breast = tested on: T-47D breast
# NCI-H23 lung = tested on: NCI-H23 lung
smiles,measurement,setting,value
O=C(Nc1cccc(-c2cn(-c3ccc4oc(=O)ccc4c3)nn2)c1)Nc1cc(C(F)(F)F)cc(C(F)(F)F)c1,GI50,SF-539 CNS,15.1 µM
same,TGI,SF-539 CNS,> 100 µM
same,GI50,MALME-3M melanoma,28.2 µM
same,TGI,MALME-3M melanoma,> 100 µM
same,GI50,RPMI-8226 leukemia,2.88 µM
same,TGI,RPMI-8226 leukemia,> 100 µM
same,GI50,OVCAR-4 ovarian,3.42 µM
same,TGI,OVCAR-4 ovarian,> 100 µM
same,GI50,786-0 renal,12.6 µM
same,TGI,786-0 renal,68.1 µM
same,GI50,SNB-75 CNS,10.2 µM
same,TGI,SNB-75 CNS,45.1 µM
same,GI50,SNB-19 CNS,10.1 µM
same,TGI,SNB-19 CNS,89.8 µM
same,GI50,SN12C renal,6.31 µM
same,TGI,SN12C renal,> 100 µM
same,GI50,HOP-92 NSCLC,3.66 µM
same,TGI,HOP-92 NSCLC,31.3 µM
same,GI50,SK-MEL-2 melanoma,5.55 µM
same,TGI,SK-MEL-2 melanoma,25.7 µM
same,GI50,SK-OV-3 ovarian,18.6 µM
same,TGI,SK-OV-3 ovarian,> 100 µM
same,GI50,SK-MEL-28 melanoma,> 100 µM
same,TGI,SK-MEL-28 melanoma,> 100 µM
same,GI50,K-562 leukemia,3.25 µM
same,TGI,K-562 leukemia,> 100 µM
same,GI50,BT-549 breast,7.19 µM
same,TGI,BT-549 breast,> 100 µM
same,GI50,UACC-62 melanoma,6.8 µM
same,TGI,UACC-62 melanoma,> 100 µM
same,GI50,HCT-15 colon,5.15 µM
same,TGI,HCT-15 colon,> 100 µM
same,GI50,RXF 393 renal,2.44 µM
same,TGI,RXF 393 renal,8.47 µM
same,GI50,NCI-H460 lung,4.81 µM
same,TGI,NCI-H460 lung,> 100 µM
same,GI50,OVCAR-3 ovarian,3.31 µM
same,TGI,OVCAR-3 ovarian,> 100 µM
same,GI50,MCF7 breast,4.41 µM
same,TGI,MCF7 breast,> 100 µM
same,GI50,MOLT-4 leukemia,3.82 µM
same,TGI,MOLT-4 leukemia,> 100 µM
same,GI50,U251 CNS,4.69 µM
same,TGI,U251 CNS,> 100 µM
same,GI50,CCRF-CEM leukemia,3.31 µM
same,TGI,CCRF-CEM leukemia,> 100 µM
same,GI50,A498 renal,20.7 µM
same,TGI,A498 renal,> 100 µM
same,GI50,SK-MEL-5 melanoma,4.18 µM
same,TGI,SK-MEL-5 melanoma,> 100 µM
same,GI50,COLO 205 colon,> 100 µM
same,TGI,COLO 205 colon,> 100 µM
same,GI50,T-47D breast,3.14 µM
same,TGI,T-47D breast,> 100 µM
same,GI50,NCI-H23 lung,3.34 µM
same,TGI,NCI-H23 lung,> 100 µM
